{"source": "patent US9180164B2", "about": "“Compounds and methods of modulating angiogenesis” (THE CLEVELAND CLINIC FOUNDATION, priority 2011, dated 2015)", "key": {"[1]": {"system": "HUVECs", "experiment": "Cell adhesion assay with inhibiting peptide", "format": "cell-based, Human", "details": "HUVECs on integrin ligand coated plates", "protocol": "Cells were washed twice with sterile phosphate buffered saline (PBS) and re-suspended in serum-free DMEN. The cell suspensions were added to integrin ligand-coated wells and placed in a humidified incubator for 45 min. The wells were gently washed three times with DMEM and photographs were taken. The numbers of attached and spread cells per field were counted.\nTo examine endothelial cell adhesion to various ECM proteins following inhibition of expression of specific integrin subunits, HUVECs were plated on various integrin ligand coated plates and ability of EC to adhere to the distinct extracellular matrix components were tested after administration of a control peptide (YGRKKRRQRRR G DTANNPL FKEATSTFT-COOH) (SEQ ID NO: 43) or with equal amount of beta-3 integrin cytoplasmic domain inhibitory peptide (YGRKKRRQRRR G DTANNPLYpKEATSTFT-COOH) (SEQ ID NO: 44)."}, "[2]": {"system": "neovascularization", "experiment": "Matrigel plug assay, hemoglobin extracted from Matrigel", "format": "in vivo, mice", "details": "50 mM peptide in Matrigel with VEGF (60 ng/mL), subcutaneous, 7 days", "experimental": "Matrigel plug assays were performed in age- and sex-matched C57/B16 background mice. […] After 7 days, the animals were euthanized and dissected. Matrigel plugs were removed and digested using 5 mL Drabkin reagent and neovascularization was assessed using a hemoglobin assay as per the manufacturer's protocol (FIG. 16).\nAngiogenic response was measured based on the amount of hemoglobin extracted from Matrigel."}, "[3]": {"system": "endothelial cells", "experiment": "VEGF-induced endothelial cell migration with inhibiting peptide", "format": "cell-based", "protocol": "To examine the effect of the inhibiting peptide on endothelial cell migration, VEGF-induced migratory activity of endothelial cells was measured after administration of a control peptide (YGRKKRRQRRR G DTANNPL FKEATSTFT-COOH) (SEQ ID NO: 43) or with equal amount of beta-3 integrin cytoplasmic domain inhibitory peptide (YGRKKRRQRRR G DTANNPLYpKEATSTFT-COOH) (SEQ ID NO: 44) to the endothelial cells."}}}
{"sequence": "YGRKKRRQRRR G DTANNPL Yp KEATSTFT-COOH", "values": [{"measurement": "effect on cell adhesion compared to a control peptide", "setting": "[1]", "value": "no effect on cell adhesion"}, {"measurement": "hemoglobin concentration lower in Matrigel plugs compared to control peptide", "setting": "[2]", "value": "at least 3.5 fold"}, {"measurement": "VEGF-induced endothelial cell migration compared to the control peptide", "setting": "[3]", "value": "prevented endothelial cell migration"}, {"measurement": "capillary formation compared to the control peptide", "setting": "[3]", "value": "inhibited capillary formation"}]}
